Read-outs that look alike come from different tables or passages of the source.

Assay [1] has as its target T1, RORγt (Homo sapiens, UniProt P51449).
T1 sequence (P51449 1-497 isoform P51449-2): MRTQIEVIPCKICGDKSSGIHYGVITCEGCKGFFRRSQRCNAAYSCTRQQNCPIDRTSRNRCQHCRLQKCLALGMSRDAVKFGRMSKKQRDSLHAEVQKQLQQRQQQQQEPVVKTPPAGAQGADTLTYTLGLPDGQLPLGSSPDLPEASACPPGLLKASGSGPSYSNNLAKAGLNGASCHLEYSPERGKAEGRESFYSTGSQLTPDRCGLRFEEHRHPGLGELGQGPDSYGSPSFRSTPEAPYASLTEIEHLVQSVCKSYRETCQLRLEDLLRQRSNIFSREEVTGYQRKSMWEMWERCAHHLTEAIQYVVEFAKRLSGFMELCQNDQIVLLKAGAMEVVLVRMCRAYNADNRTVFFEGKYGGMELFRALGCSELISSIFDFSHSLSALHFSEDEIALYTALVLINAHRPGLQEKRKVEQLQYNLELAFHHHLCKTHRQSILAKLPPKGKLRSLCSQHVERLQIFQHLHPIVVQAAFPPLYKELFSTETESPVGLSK
The experiment in a line: RORγt binding test using fluorescent-labeled cholesterol (TR-FRET). The note with it: read-out: Binding inhibitory rate of fluorescent-labeled cholesterol to RORγt at test compound 1 μM (%). As to the method:
RORγt Binding Test Using Fluorescent-labeled Cholesterol
The binding activity of the test compound to RORγt was measured by a time resolved fluorescence resonance energy transfer method (TR-FRET) utilizing histidine-tagged RORγt, fluorescent-labeled cholesterol (BODIPY-cholesterol, AVIVA), and terbium-labeled anti-histidine tag antibody (Invitrogen). First, a test compound diluted with an assay buffer (20 mM Tris-HCl (pH 7.5), 100 mM NaCl, 1 mM DTT, 0.1% BSA) was added to a 384 well plate by 3 μL. Then, RORγt diluted with an assay buffer to 240 nM was added by 3 μL, after which fluorescent-labeled cholesterol diluted with the assay buffer to 12 μM was added by 3 μL, and the mixture was stood at room temperature for 20 min. Thereafter, a terbium-labeled anti-histidine tag antibody diluted with the assay buffer to 8 nM was added by 3 μL. The mixture was stood at room temperature for 20 min, and fluorescence intensity (excitation wavelength 320 nm, fluorescence wavelength 520 nm, delay time 100 microseconds) was measured by Envision (PerkinElmer).

In assay [2] the target is T1, RORγt. The experiment in a line: Jurkat reporter test (human IL-17 ROR response element luciferase, RORγt vector). The format is cell-based. The note with it: read-out: Luminescence level inhibitory rate at test compound 3 μM (%). The protocol: The Jurkat cells used for the reporter test were cultured in a culture medium (RPMI (Invitrogen), 10% FCS (AusGeneX), 100 U/mL penicillin, 100 μg/mL streptomycin). On the day of the test, 4×10^7 cells were recovered by a centrifugal operation (1000 rpm, 5 min.) and suspended in PBS (phosphate buffered saline) (Invitrogen). Thereafter, the cells were recovered again by a centrifugal operation, and suspended in 2 mL of R buffer (NEON transfection kit, Invitrogen). […] Gene transfer was performed by Electroporation apparatus (NEON, Invitrogen) under the conditions of pulse voltage 1350 V, interval 10 milliseconds, number of times 3. The cells after gene transfer were suspended in 40 mL of a reaction medium (RPMI, 10% Lipid reduced FCS (HyClone), 10 mM HEPES (pH 7.5), 100 U/mL penicillin, 100 μg/mL streptomycin, 5 μM lovastatin), and plated in a 96 well plate by 90 μL. A test compound diluted with the reaction medium was added by 10 μL, and the cells were cultured overnight in an incubator. Bright-Glo (Promega) was added by 100 μL, and the mixture was stirred at room temperature for 10 min, and the luminescence level was measured by Envision (PerkinElmer).

Assay [3] deals with T1, RORγt. The experiment in a line: Cofactor recruitment test (Alpha Screen, biotinylated SRC-1 peptide). In kind it is biochemical. As to conditions: read-out: Signal value inhibitory rate at test compound 1 μM (%). The protocol: Cofactor Recruitment Test
Cofactor recruitment test was performed by Alpha Screen (Histidine Detection Kit, PerkinElmer) method. First, a test compound was diluted with an assay buffer (50 mM Tris-HCl (pH 7.5), 50 mM KCl, 1 mM DTT, 0.1% BSA) and added to a 384 well plate by 5 μL. […] The mixture was stood in a dark place for 1 hr, and the signal value was measured by Envision (PerkinElmer).

Where [4] appears, read: test compound 3 μM, Jurkat cells.

Regarding `COc1ccc2c(c1)CCN(C(=O)c1ccc(=O)[nH]c1)C2C(=O)Nc1ccc([Si](C)(C)C)cc1` (stereo not drawn) [Example 2, 6-methoxy-2-((6-oxo-1,6-dihydropyridin-3-yl)carbonyl)-N-(4-(trimethylsilyl)phenyl)-1,2,3,4-tetrahydroisoquinoline-1-carboxamide], the inhibition at 1 µM amounted to 99.7% at RORγt [1] and 80.5% on RORγt [3]. Moreover, on RORγt [2] (Jurkat), the inhibition at 3 µM was determined as 98.1%.

As for `COc1ccc2c(c1)CCN(C(=O)c1cc(O)no1)C2C(=O)Nc1ccc([Si](C)(C)C)c(F)c1` (stereo not drawn) [Example 3, N-(3-fluoro-4-(trimethylsilyl)phenyl)-2-((3-hydroxy-1,2-oxazol-5-yl)carbonyl)-6-methoxy-1,2,3,4-tetrahydroisoquinoline-1-carboxamide], the inhibition at 1 µM worked out at 101% on RORγt [1] and 92.7% on RORγt [3]. At RORγt [2] (Jurkat), the inhibition at 3 µM came to 99.6%.

For `COc1ccc2c(c1)CCN(C(=O)c1ccc(=O)[nH]c1)C2C(=O)Nc1ccc([Si](C)(C)C)c(F)c1` (stereo not drawn) [Example 4, N-(3-fluoro-4-(trimethylsilyl)phenyl)-6-methoxy-2-((6-oxo-1,6-dihydropyridin-3-yl)carbonyl)-1,2,3,4-tetrahydroisoquinoline-1-carboxamide], the results for the inhibition at 1 µM at RORγt [1] and at RORγt [3] were 101% and 81.9%, respectively. At RORγt [2] (Jurkat), the inhibition at 3 µM came to 99.7%.

As for `COc1ccc2c(c1)CCN(C(=O)c1ccc(=O)[nH]c1)[C@H]2C(=O)Nc1ccc([Si](C)(C)C)c(F)c1` [Example 8, (1R)-N-(3-fluoro-4-(trimethylsilyl)phenyl)-6-methoxy-2-((6-oxo-1,6-dihydropyridin-3-yl)carbonyl)-1,2,3,4-tetrahydroisoquinoline-1-carboxamide], the inhibition at 1 µM on RORγt [1] was determined as 102%; at RORγt [3], 81.2%. Also, the inhibition at 3 µM at RORγt [2] (Jurkat) is 101%.

Consider `COc1ccc2c(c1)CCN(C(=O)c1cc(O)no1)C2C(=O)Nc1ccc(C(C)(C)C)c(F)c1` (stereo not drawn) [Example 9, N-(4-tert-butyl-3-fluorophenyl)-2-((3-hydroxy-1,2-oxazol-5-yl)carbonyl)-6-methoxy-1,2,3,4-tetrahydroisoquinoline-1-carboxamide], for which the inhibition at 1 µM at RORγt [1] was found to be 100%; on RORγt [3] it was 77.3%. The inhibition at 3 µM on RORγt [2] (setting [4]) was found to be 101%.

For the compound `COc1ccc2c(c1)CCN(C(=O)c1cc(O)no1)C2C(=O)Nc1ccc(C(C)(C)C)c(Cl)c1` (stereo not drawn) [Example 10, N-(4-tert-butyl-3-chlorophenyl)-2-((3-hydroxy-1,2-oxazol-5-yl)carbonyl)-6-methoxy-1,2,3,4-tetrahydroisoquinoline-1-carboxamide], the inhibition at 1 µM on RORγt [1] came to 98.9%; at RORγt [3], 43.8%. On RORγt [2] (setting [4]), the inhibition at 3 µM amounted to 98.8%.

With `COc1ccc2c(c1)CCN(C(=O)c1cc(O)no1)C2C(=O)Nc1cc(F)c2c(c1)CCC2(C)C` (stereo not drawn) [Example 11, N-(7-fluoro-1,1-dimethyl-2,3-dihydro-1H-inden-5-yl)-2-((3-hydroxy-1,2-oxazol-5-yl)carbonyl)-6-methoxy-1,2,3,4-tetrahydroisoquinoline-1-carboxamide], the inhibition at 1 µM amounted to 103% at RORγt [1] and 67.7% on RORγt [3]. Moreover, the inhibition at 3 µM on RORγt [2] (setting [4]) was determined as 99.7%.

For `COc1ccc2c(c1)CCN(C(=O)c1cc(O)no1)C2C(=O)Nc1cc(F)c(C(C)(C)C)c(F)c1` (stereo not drawn) [Example 12, N-(4-tert-butyl-3,5-difluorophenyl)-2-((3-hydroxy-1,2-oxazol-5-yl)carbonyl)-6-methoxy-1,2,3,4-tetrahydroisoquinoline-1-carboxamide], the results for the inhibition at 1 µM on RORγt [1] and at RORγt [3] were 103% and 82.4%, respectively. For the same compound, the inhibition at 3 µM on RORγt [2] (setting [4]) came out at 99.3%.

For `COc1ccc2c(c1)CCN(C(=O)Cc1nnc(C)o1)[C@H]2C(=O)Nc1ccc(C(C)(C)C)c(F)c1` [Example 28, (1R)-N-(4-tert-butyl-3-fluorophenyl)-6-methoxy-2-((5-methyl-1,3,4-oxadiazol-2-yl)acetyl)-1,2,3,4-tetrahydroisoquinoline-1-carboxamide], the results for the inhibition at 1 µM at RORγt [1] and at RORγt [3] were 102% and 83.2%, respectively. Besides, at RORγt [2] (setting [4]), the inhibition at 3 µM came to 101%.

As to `COc1ccc2c(c1)CCN(C(=O)Cn1cnccc1=O)[C@H]2C(=O)Nc1ccc(C(C)(C)C)c(F)c1` [Example 29, (1R)-N-(4-tert-butyl-3-fluorophenyl)-6-methoxy-2-((6-oxopyrimidin-1(6H)-yl)acetyl)-1,2,3,4-tetrahydroisoquinoline-1-carboxamide], the inhibition at 1 µM at RORγt [1] came out at 102%; on RORγt [3], 88%. The inhibition at 3 µM at RORγt [2] (setting [4]) was 102%.

Consider `COc1ccc2c(c1)CCN(C(=O)CCO)[C@H]2C(=O)Nc1ccc(C(C)(C)C)c(F)c1` [Example 30, (1R)-N-(4-tert-butyl-3-fluorophenyl)-2-(3-hydroxypropanoyl)-6-methoxy-1,2,3,4-tetrahydroisoquinoline-1-carboxamide], for which the inhibition at 1 µM at RORγt [1] is 102%; on RORγt [3], 82%. For the same compound, the inhibition at 3 µM at RORγt [2] (setting [4]) worked out at 99.8%.

As to `COc1ccc2c(c1)CCN(C(=O)Cc1ccc(OC)nc1)[C@H]2C(=O)Nc1ccc(C(C)(C)C)c(F)c1` [Example 32, (1R)-N-(4-tert-butyl-3-fluorophenyl)-6-methoxy-2-((6-methoxypyridin-3-yl)acetyl)-1,2,3,4-tetrahydroisoquinoline-1-carboxamide], the inhibition at 1 µM at RORγt [1] was determined as 101%; on RORγt [3] it was 89.9%. Also, the inhibition at 3 µM on RORγt [2] (setting [4]) is 103%.

In the case of `CCOC(=O)C(C)(C)c1ccc(NC(=O)C2c3ccc(OC)cc3CCN2C(=O)c2cc(O)no2)cc1F` (stereo not drawn) [Example 37, ethyl 2-(2-fluoro-4-(((2-((3-hydroxy-1,2-oxazol-5-yl)carbonyl)-6-methoxy-1,2,3,4-tetrahydroisoquinolin-1-yl)carbonyl)amino)phenyl)-2-methylpropanoate], the inhibition at 1 µM is 103% at RORγt [1] and 98.3% at RORγt [3]. Besides, at RORγt [2] (setting [4]), the inhibition at 3 µM was found to be 98.6%.

Take `CCOc1ccc2c(c1)CCN(C(=O)Cc1cc(O)no1)C2C(=O)Nc1ccc(C(C)(C)C)c(F)c1` (stereo not drawn) [Example 54, N-(4-tert-butyl-3-fluorophenyl)-6-ethoxy-2-((3-hydroxy-1,2-oxazol-5-yl)acetyl)-1,2,3,4-tetrahydroisoquinoline-1-carboxamide]: the figures for the inhibition at 1 µM on RORγt [1] and on RORγt [3] were 100% and 81.9%, respectively. The inhibition at 3 µM on RORγt [2] (setting [4]) worked out at 101%.

On to `CCOc1ccc2c(c1)CCN(C(=O)Cc1cc(O)no1)C2C(=O)Nc1cc(F)c2c(c1)CCC2(C)C` (stereo not drawn) [Example 55, 6-ethoxy-N-(7-fluoro-1,1-dimethyl-2,3-dihydro-1H-inden-5-yl)-2-((3-hydroxy-1,2-oxazol-5-yl)acetyl)-1,2,3,4-tetrahydroisoquinoline-1-carboxamide], for which the inhibition at 1 µM on RORγt [1] came to 102%; on RORγt [3] it was 73.4%. Also, the inhibition at 3 µM on RORγt [2] (setting [4]) turned out to be 100%.

`COc1ccc2c(n1)CCN(C(=O)c1cc(O)no1)[C@H]2C(=O)Nc1ccc(C(C)(C)C)c(F)c1` [Example 77, (5R)-N-(4-tert-butyl-3-fluorophenyl)-6-((3-hydroxy-1,2-oxazol-5-yl)carbonyl)-2-methoxy-5,6,7,8-tetrahydro-1,6-naphthyridine-5-carboxamide]: the inhibition at 1 µM at RORγt [1] turned out to be 101%; on RORγt [3], 91%. In addition, the inhibition at 3 µM on RORγt [2] (setting [4]) amounted to 100%.

The values are drawn from US10053468B2, “Heterocyclic compound” (TAKEDA PHARMACEUTICAL COMPANY LIMITED, priority 2013, dated 2018).
